From US8044022B2, “Hyaluronic acid binding peptides enhance host defense against pathogenic bacteria” (priority 2005, dated 2011)

Assays:
[1] = Fluorometry binding of FITC-conjugated peptide to purified HA in well; set-up: species or system rooster
Procedure: Lyophilized synthetic peptides were resuspended in PBS pH7.4 prior to use in either in vitro or in vivo experiments. Fluorescein conjugation of HABP01 and SCRM was performed using 5,6 carboxyfluorescein, succinimidyl ester (5,6 FAM) (Molecular Probes, Portland, Oreg.) as per manufacturer's instructions and separated on a Sephadex G-25 column (Amersham, Piscataway, N.J.). Purified, high molecular weight rooster comb HA (Sigma-Aldrich, St Louis, Mo.) was used as a positive control for BP binding.
(§1) Binding of HABP to HA and HA-encapsulated bacteria: To assess whether HABP are able to associate specifically with the GAS capsule, bacteria were cultured to mid-log phase, for maximal HA capsule expression, and incubated with either 10 μg/ml of FITC-conjugated HABP01 or SCRM, with purified HA at 1 mg/ml, as a positive control, or an isogenic mutant strain of GAS deficient in HA capsule, as a negative control. A GAS-specific antibody was used to control for the number of bacteria per well.

S. aureus strain PS80 = assay: Mouse model of S. aureus surgical wound infection; type: in vivo, C57BL6 mice; details: 100 μg into wound at time of challenge with 10^2 CFU; 3 days later
Procedure: Bacterial strains. S. aureus strain PS80 (serotype 8) was obtained from the American Type Culture collection (#27700) and is a potent inducer of intraabdominal abscess formation. S. aureus COL is a methicillin resistant strain that produces a serotype 5 capsule. Staphylococci were cultivated for 24 h at 37° C. on Columbia agar (Difco Laboratories, Detroit, Mich.) supplemented with 2% NaCl.
Mouse model of S. aureus wound infection. Mice (C57BL6, male, 6-8 wk old) were obtained from Jackson Laboratories (Bar Harbor, Me.). Groups of mice (N=4/group/experiment) were anesthetized with 100 mg/kg ketamine and 10 mg/kg xylazine, their right thighs were shaved, and the surgical area was disinfected with iodine and 70% ethanol. An incision was made in the skin to expose the thigh muscle, and a 1-cm incision was made with a scalpel into the thigh muscle to the depth of the bone. The muscle was then closed with one 4-0 silk suture, and 10 μl of a S. aureus suspension ranging in dose from 10^2 to 10^4 CFU was introduced into the incision under the suture. The skin was closed with four additional Prolene sutures. The mice were euthanized at 3 days post-surgery. The wounded muscle tissue was excised, weighed (˜0.08 g), and homogenized in 1 ml of tryptic soy broth. Serial dilutions of the homogenates were plated in duplicate and results were expressed as CFU/g tissue. Peptides were administered to animals in two ways. For most experiments, HABPs were solubilized in PBS and administered with a pipet into the wound in a 10 μl volume following challenge with bacteria. A 100 μg dose was used for most experiments. For therapeutic studies, peptide was administered via a 1 ml tuberculin syringe fitted with a 25 gauge needle in a 0.25 ml volume injected into the thigh muscle containing the wound distal from the incision site.
Gross pathology and histologic analysis of host response. […] Histological examination of these wounds confirmed these findings. Muscle tissue was harvested from mice at designated intervals post-surgery, fixed in 10% buffered formalin, and mounted in paraffin; 5 to 6-μm sections were cut and stained with hematoxylin and eosin for microscopic examination. […] The cellular infiltrate was primarily comprised of PMNs and fibrin.
Statistical analyses. All animal experiments were performed at least two times and the data pooled. Comparison of S. aureus CFU/g tissue was made by the Welch modification of the unpaired Student t test (InStat, GraphPad Software, San Diego, Calif.).

GAS [2] = assay: Mouse soft tissue invasive infection model; set-up: species or system CBA/J mice; details: in vivo
Procedure: Mouse soft tissue invasive infection model: Female 4-6-week-old CBA/J mice (Jackson Laboratory, […].) were inoculated with GAS. Briefly, mice were anesthetized and the hair was shaved off the right flank. Approximately 1.5×10^5 cfu of GAS from an early log-phase broth culture were suspended in 50 μl of sterile PBS or HABP and inoculated just under the surface of the skin with a 27-guage needle. The animals were observed twice daily for 3-5 days. Serial tail vein bleeds were performed daily and 50 μl of blood was inoculated on BAP for enumeration of viable bacterial CFU and incubated at 37° C. for 24 hours. Animals surviving the experiment or appearing moribund at any time were euthanized and the spleen removed using aseptic technique. The spleen was homogenized in 1 ml of THB and 100 μl of homogenate plated on BAP. In some experiments animals were euthanized at various time points during infection and tissue sections from the inoculation site were prepared for histopathological examination.
HABP-treated mice repeatedly indicated a 24-hour to 48-hour delay in dissemination of bacteria from the inoculation site compared to controls. […] The delayed dissemination correlated with a reduced mortality 24 hours after infection, but once dissemination occurred, HABP-treated mice died rapidly. Histopathologic analysis of the infection site indicated typical lateral GAS dissemination. […]

[3] = tested on: Wild Type GAS (HA encapsulated); assay: Fluorometry binding of FITC-conjugated peptide to encapsulated GAS; set-up: species or system Group A Streptococcus
Procedure: (§2) Bacterial strains: GAS strain 950771 is a moderately encapsulated M3 clinical isolate from a child with post-varicella necrotizing fasciitis and sepsis, and an isogenic capsule deficient mutant, 188, derived from 950771. GAS were grown in Todd-Hewitt broth (Difco) to mid-exponential phase OD650 of 0.15 at 37° C. for all experiments. Commercially available trypticase-soy agar medium supplemented with 5% vol/vol sheep blood (BAP)(PML Microbiologicals, British Columbia, Canada) were used for all plate cultures. S. equi s(ATCC 53185) and P. multocida (ATCC 11039) were purchased from ATCC and cultured as recommended. Briefly, S. equi was cultured in Todd-Hewitt broth and S. uberis and P. multocida were cultured in Brain heart infusion (Difco) to OD 650 of 0.15 at 37° C. Quantitative cultures were performed in parallel with each experiment to verify the multiplicity of infection (MOI) of the inoculum.
as §1

Acapsular GAS = assay: Fluorometry binding of FITC-conjugated peptide to capsule-deficient GAS; set-up: species or system Group A Streptococcus
Procedure: as §2, §1

GAS [4] = assay: Opsonophagocytic assay with human neutrophils; type: cell-based, Group A Streptococcus; details: 50 μg/ml, 2 hours incubation with human neutrophils, 10% absorbed human serum
Procedure: Encapsulated GAS are resistant to killing by neutrophils in opsonophagocytic assays in the absence of antibodies that bind the bacterial surface. HABPs binding to the bacterial surface may facilitate neutrophil cytotoxicity. Opsonophagocytic assays were performed wherein GAS were incubated with 50 μg/ml of SCRM, HABP01 or HABP35 and mixed with human neutrophils in medium containing 10% absorbed human serum. Aliquots (25 μl) for quantitative culture were withdrawn immediately after mixing neutrophil with GAS and after 2 hr incubation at 37° C. The log increase or decrease in CFU's was calculated. After 2 hours of incubation, there was about a 1.5 log increase in CFU's for GAS treated with PBS or SCRM.

[5] = fluorometry, HABP35 also confocal microscopy, data not shown

HKSVSRHTSMRHSTM [SCRM, reference compound]
binding to purified HA (in words) ([1]; fluorometry): did not bind
Relative binding ([1]; substrate in well: HA (1 mg/ml), 10 μg/ml FITC-conjugated peptide): 1520 ± 20 relative fluorescent units
bacterial burden at the wound site compared with PBS (S. aureus strain PS80): did not have this effect
PMNs at the infection site (confocal microscopy of tissue sections) (GAS [2]): numerous polymorphonuclear leukocytes
binding to encapsulated GAS (in words) [3, 5]: did not bind
Relative binding ([3]; substrate in well: Wild Type GAS, 10 μg/ml FITC-conjugated peptide): 1550 ± 30 relative fluorescent units
binding to unencapsulated GAS (in words) (Acapsular GAS; [5]): did not bind
Relative binding (Acapsular GAS; substrate in well: Acapsular GAS, 10 μg/ml FITC-conjugated peptide): 1490 ± 40 relative fluorescent units
log increase in CFU's (GAS [4]): ~1.5 log
